Reference: patent publication EP4782431A1 (Suzhou Merna Therapeutics Co. Ltd, priority 2023, dated 2025)

Key:
Format in all cases: physicochemical
[1] = competitive suspension tests of crystal forms (XRPD)
Procedure: (§1) A 2θ scanning angle of the sample was 3°-40°, a scanning step size was 0.02°, and a scanning time per step was 0.12 s/step. An optical tube voltage and a current were 40 kV and 40 mA, respectively. During sample preparation, an appropriate amount of the sample was placed on a sample tray and flattened with a tool such as a glass slide to ensure a smooth and even surface.
Resulting suspensions were suspended at 5°C, 25°C, and 50°C for 3 days, respectively. The resulting suspensions were centrifuged, and solid portions were detected by XRPD.

[2] = stability of crystal forms (XRPD, HPLC, color)
Procedure: as §1
An Agilent 1260 infinityII binary pump was used for solubility and stability testing.
The stability of samples under these conditions was detected by XRPD and HPLC, and whether the samples had color changes was observed.
A certain amount of the crystal form C of the compound of formula (I) was weighed and placed in an open container at 25°C/92.5%RH for 1 week. A certain amount of the crystal form C of the compound of formula (I) was weighed and placed in a closed container at 60°C for 1 week. The stability of samples under these conditions was detected by XRPD and HPLC, and whether the samples had color changes was observed. Table 16 Stability test results of the crystal form C of the compound of formula (I)
A certain amount of the crystal form D of the compound of formula (I) was weighed and placed in an open container at 25°C/92.5%RH for 1 week. A certain amount of the crystal form D of the compound of formula (I) was weighed and placed in a closed container at 60°C for 1 week. The stability of samples under these conditions was detected by XRPD and HPLC, and whether the samples had color changes was observed. Table 17 Stability test results of the crystal form D of the compound of formula (I)
A certain amount of the crystal form E of the compound of formula (I) was weighed and placed in an open container at 25°C/92.5%RH for 1 week. A certain amount of the crystal form E of the compound of formula (I) was weighed and placed in a closed container at 60°C for 1 week. The stability of samples under these conditions was detected by XRPD and HPLC, and whether the samples had color changes was observed. Table 18 Stability test results of the crystal form E of the compound of formula (I)

[3] = hygroscopicity by dynamic vapor sorption (DVS); conditions: for 1st adsorption Percentage of weight change / 1st desorption Percentage of weight change / 2nd adsorption Percentage of weight change / 2nd desorption Percentage of weight change: 40-0-95-0-40%RH, 240 min per step
Procedure: ProUmid SPSx-1µ Advance was used for analysis of a sample. The sample to be tested was approximately in an amount of 5-50 mg. A temperature in a test chamber was controlled at 25±1°C, a relative humidity cycle was […], a step size was 10%, an equilibrium time was 240 minutes per step, and mass data was recorded every 20 seconds.
A DVS cycle was 40-0-95-0-40%RH. XRPD detection was performed on samples after the DVS testing to determine whether crystal form transformation occurred.

[4] = stability of crystal forms (XRPD, HPLC, color); conditions: 25°C/92%RH open, 1 week

In the case of `NC(=O)[C@H]1CCCc2c1[nH]c1ccc(Cl)cc21` [Crystal form F, (S)-6-chloro-2,3,4,9-tetrahydro-1H-carbazole-carboxamide], the “crystal form after competitive suspension slurrying” value ([1]; isopropanol, isopropyl acetate, and acetonitrile, 5°C, 25°C, 50°C, 3 days) is reported as “converted into the crystal form F”, the “relative stability of crystal forms” value ([1]; temperature range of 5°C to 50°C) is reported as “more stable than the crystal forms B and G” and the Color ([2]; 60°C, closed, 1 week) is reported as “No change”. For the same compound, the “Degradation (%)” value ([2]; 60°C, closed, 1 week) was “None”, the “Purity (%)” value ([2]; 60°C, closed, 1 week) was 99.8% and the “Purity (%)” value ([2]; Initial) was 99.8%. The “Hygroscopicity Conclusion” value ([3]; DVS at 25°C, Table 13) was “No hygroscopicity”, the “1st adsorption Percentage of weight change” value ([3]; Relative humidity 0% at 25°C) was 0.1% and the “1st desorption Percentage of weight change” value ([3]; Relative humidity 0% at 25°C) was 0.1%. The “2nd adsorption Percentage of weight change” value ([3]; Relative humidity 0% at 25°C) was 0.3%, the “2nd desorption Percentage of weight change” value ([3]; Relative humidity 0% at 25°C) was 0.3% and the “1st adsorption Percentage of weight change” value ([3]; Relative humidity 10% at 25°C) was 0.2%. For the same compound, the “1st desorption Percentage of weight change” value ([3]; Relative humidity 10% at 25°C) was 0.3%, the “2nd adsorption Percentage of weight change” value ([3]; Relative humidity 10% at 25°C) was 0.2% and the “2nd desorption Percentage of weight change” value ([3]; Relative humidity 10% at 25°C) was 0.3%. For the same compound, the “1st adsorption Percentage of weight change” value ([3]; Relative humidity 20% at 25°C) was 0.2%, the “1st desorption Percentage of weight change” value ([3]; Relative humidity 20% at 25°C) was 0.1% and the “2nd adsorption Percentage of weight change” value ([3]; Relative humidity 20% at 25°C) was 0.2%. For the same compound, the “2nd desorption Percentage of weight change” value ([3]; Relative humidity 20% at 25°C) was 0.4%, the “1st adsorption Percentage of weight change” value ([3]; Relative humidity 30% at 25°C) was 0.1% and the “1st desorption Percentage of weight change” value ([3]; Relative humidity 30% at 25°C) was 0.1%. The “2nd adsorption Percentage of weight change” value ([3]; Relative humidity 30% at 25°C) was 0.0%, the “2nd desorption Percentage of weight change” value ([3]; Relative humidity 30% at 25°C) was 0.1% and the “1st adsorption Percentage of weight change” value ([3]; Relative humidity 40% at 25°C) was 0.2%. The “1st desorption Percentage of weight change” value ([3]; Relative humidity 40% at 25°C) was 0.2%, the “2nd adsorption Percentage of weight change” value ([3]; Relative humidity 40% at 25°C) was 0.0% and the “2nd desorption Percentage of weight change” value ([3]; Relative humidity 40% at 25°C) was 0.4%. The “1st adsorption Percentage of weight change” value ([3]; Relative humidity 50% at 25°C) was 0.2%, the “2nd desorption Percentage of weight change” value ([3]; Relative humidity 50% at 25°C) was 0.2% and the “1st adsorption Percentage of weight change” value ([3]; Relative humidity 60% at 25°C) was 0.2%. For the same compound, the “2nd desorption Percentage of weight change” value ([3]; Relative humidity 60% at 25°C) was 0.2%, the “1st adsorption Percentage of weight change” value ([3]; Relative humidity 70% at 25°C) was 0.2% and the “2nd desorption Percentage of weight change” value ([3]; Relative humidity 70% at 25°C) was 0.2%. The “1st adsorption Percentage of weight change” value ([3]; Relative humidity 80% at 25°C) was 0.1%, the “2nd desorption Percentage of weight change” value ([3]; Relative humidity 80% at 25°C) was 0.0% and the “1st adsorption Percentage of weight change” value ([3]; Relative humidity 90% at 25°C) was 0.3%. The “2nd desorption Percentage of weight change” value ([3]; Relative humidity 90% at 25°C) was 0.1%, the “1st adsorption Percentage of weight change” value ([3]; Relative humidity 95% at 25°C) was 0.1% and the “2nd desorption Percentage of weight change” value ([3]; Relative humidity 95% at 25°C) was 0.1%. For the same compound, the “XRPD after DVS testing” value ([3]; after DVS cycle 40-0-95-0-40%RH at 25°C) was “Crystal form F”, the Color [4] was “No change” and the “Degradation (%)” value [4] was “None”. For the same compound, the “Purity (%)” value [4] was 99.8%.
